Calls of active or inactive are those of the source. Cut-off read from the data, not from the text of the source: actives have a measured IC50 and inactives only a lower limit.

For the assay, the target named is Envelope glycoprotein gp160 (Human immunodeficiency virus 1, UniProt Q6QLK5). The experiment in a line: cell-free HIV fusion peptide-binding blockers – biochemical, uHTS, fluorescence dequenching, […] (AID 1986).
Envelope glycoprotein gp160, sequence (Q6QLK5 whole entry, the tested form may be a part): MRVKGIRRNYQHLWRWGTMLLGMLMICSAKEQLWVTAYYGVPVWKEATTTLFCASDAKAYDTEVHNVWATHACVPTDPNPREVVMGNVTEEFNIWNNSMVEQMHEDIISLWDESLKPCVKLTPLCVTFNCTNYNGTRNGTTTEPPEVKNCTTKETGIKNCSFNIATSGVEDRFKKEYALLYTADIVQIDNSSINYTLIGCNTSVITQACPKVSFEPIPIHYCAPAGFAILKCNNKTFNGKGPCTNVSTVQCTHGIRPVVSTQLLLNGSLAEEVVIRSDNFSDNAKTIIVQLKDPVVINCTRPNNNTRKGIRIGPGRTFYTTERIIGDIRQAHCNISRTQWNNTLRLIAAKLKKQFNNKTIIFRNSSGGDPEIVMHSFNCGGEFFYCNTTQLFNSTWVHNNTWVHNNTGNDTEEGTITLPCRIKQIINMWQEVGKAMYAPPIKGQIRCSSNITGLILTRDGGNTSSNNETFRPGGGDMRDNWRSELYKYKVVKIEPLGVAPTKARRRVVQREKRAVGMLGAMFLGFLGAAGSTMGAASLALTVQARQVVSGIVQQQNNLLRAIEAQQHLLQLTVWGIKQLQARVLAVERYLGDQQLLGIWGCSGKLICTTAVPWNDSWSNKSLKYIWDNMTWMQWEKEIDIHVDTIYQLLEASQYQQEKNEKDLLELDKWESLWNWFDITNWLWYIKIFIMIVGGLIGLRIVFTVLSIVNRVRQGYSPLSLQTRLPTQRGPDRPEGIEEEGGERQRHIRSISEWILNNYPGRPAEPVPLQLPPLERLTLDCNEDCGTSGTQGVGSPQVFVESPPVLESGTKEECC
Regarding `COCCN1C(=O)/C(=C/c2ccc(OCc3ccc(C(=O)O)cc3)c(OC)c2)S/C1=N\c1ccccc1`, the 50% inhibitory concentration (IC50) (in general, the point on the concentration scale where inhibition reaches its midpoint) is 15.1 µM (active). The result for `CC(C(=O)Nc1ccc(O)c(C(=O)O)c1)N1C(=O)/C(=C/c2cccs2)SC1=S` (stereo not drawn) reads 18.8 µM (active). The result for `O=C1NC(=O)/C(=C/c2ccc(-c3cc(C(=O)O)ccc3Cl)o2)S1` reads 25.8 µM (active).

Source of the values: ChEMBL document CHEMBL1201862, “PubChem BioAssay data set” (2004).
